Test results taken from US20110039819A1, “SUBSTITUTED PHENOXYBENZAMIDES” (priority 2008, published 2011).
Read-outs that look alike come from different tables or passages of the source.

Molecular target: T1, MEK1 (Homo sapiens, UniProt Q02750)
T1 construct: purchased Millipore 14-420 (GST-MEK1); 14-703 (Cot1); host or cells: Cot1: insect cells (SF21)
Assay: MEK1 activation kinase assay (Assay 2, HTRF; Cot1 phosphorylates GST-MEK1)
Type: biochemical
Description: MEK1 Activation Kinase Assay
The kinase Cot1 activates MEK1 by phosphorylating its activation loop. The inhibitory activity of compounds of the present invention on this activation of MEK1 was quantified employing the HTRF assay described in the following paragraphs.
As substrate for the kinase reaction the unactive C-terminally His6-tagged GST-MEK1 fusion protein (Millipore cat. no 14-420) was used.
Then the kinase reaction was started by the addition of 2 μl of a solution of Cot1 in assay buffer and the resulting mixture was incubated for a reaction time of 20 min at 22° C. The concentration of Cot1 in the assay was adjusted depending of the activity of the enzyme lot and was chosen appropriate to have the assay in the linear range, typical enzyme concentrations were in the range of about 2 ng/μl (final conc. in the 5 μl assay volume).
The resulting mixture was incubated 2 h at 22° C. to allow the binding of the phosphorylated GST-MEK1 to the anti-GST-XL665 and the Eu-cryptate labelled anti-phospho-MEK 1/2 antibody. Subsequently the amount of Ser217/Ser221-phosphorylated substrate was evaluated by measurement of the resonance energy transfer from the Eu-Cryptate-labelled anti-phospho-MEK antibody to the anti-GST-XL665.

[1] = mean values from 2 or more measurements, read-out: Assay 2 IC50 values (nanomolar) (MEK1 activation kinase assay) (values are mean values from 2 or more measurements)
[2] = representative example compounds, read-out: IC50 in MEK1 activation kinase assay

T1 sequence (Q02750 whole entry): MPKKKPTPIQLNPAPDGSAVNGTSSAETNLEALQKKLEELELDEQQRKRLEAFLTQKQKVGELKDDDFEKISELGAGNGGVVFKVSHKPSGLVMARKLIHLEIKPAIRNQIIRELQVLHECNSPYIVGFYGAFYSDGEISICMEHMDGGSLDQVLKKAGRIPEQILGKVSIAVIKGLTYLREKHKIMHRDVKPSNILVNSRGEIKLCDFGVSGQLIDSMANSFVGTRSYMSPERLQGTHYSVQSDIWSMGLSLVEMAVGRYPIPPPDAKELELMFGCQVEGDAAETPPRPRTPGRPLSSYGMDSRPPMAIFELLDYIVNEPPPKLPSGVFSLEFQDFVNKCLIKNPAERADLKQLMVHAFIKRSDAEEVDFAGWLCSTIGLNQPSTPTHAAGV

Row | Structure (SMILES) | IC50 [1] | IC50 [2]
1 | Cc1cc(I)ccc1Nc1cc(F)cc(Oc2cccc(NS(=O)(=O)N(C)C)c2)c1C(N)=O [Example 2.17, 2-{3-[(dimethylsulfamoyl)amino]phenoxy}-4-fluoro-6-[(4-iodo-2-methylphenyl)amino] benzamide] | 39.8 nM | < 1000 nM
2 | CN(C)S(=O)(=O)Nc1cccc(Oc2c(F)c(F)c(F)c(Nc3ccc(I)cc3F)c2C(N)=O)c1 [Example 2.20, 2-{3-[(dimethylsulfamoyl)amino]phenoxy}-3,4,5-trifluoro-6-[(2-fluoro-4-iodophenyl)amino]-benzamide] | 16.5 nM | < 1000 nM
3 | CS(=O)(=O)NCc1cccc(Oc2cc(F)cc(Nc3ccc(I)cc3F)c2C(N)=O)c1 [Example 5.68, 4-Fluoro-2-(2-fluoro-4-iodo-phenylamino)-6-[3-(methane-sulfonylamino-methyl)-phenoxy]-benzamide] | 43.2 nM | 
4 | CN(C)S(=O)(=O)Nc1cccc(Oc2cc(F)cc(Nc3ccc(I)cc3F)c2C(=O)NCCCO)c1 [Example 4.19] | 80.1 nM | 
5 | CN(C)S(=O)(=O)N(C)c1cccc(Oc2cc(F)cc(Nc3ccc(I)cc3F)c2C(N)=O)c1 [Example 10.6, 6-[3-[[(dimethylamino)sulfonyl](methyl)-amino]phenoxy]-4-fluoro-2-[(2-fluoro-4-iodophenyl)amino]-benzamide] | 49.1 nM | < 1000 nM
6 | NC(=O)c1c(Nc2ccc(I)cc2F)cc(F)cc1Oc1cccc(NS(=O)(=O)NCC(F)(F)F)c1 [Example 5.94, 4-fluoro-2-[(2-fluoro-4-iodophenyl)amino]-6-(3-{[(2,2,2-trifluoroethyl)-sulfamoyl]amino}phenoxy)benzamide] | 55.5 nM | 
7 | C#Cc1ccc(Nc2cc(F)cc(Oc3cccc(NS(=O)(=O)N(C)C)c3)c2C(N)=O)c(F)c1 [Example 7.2, 2-[3-[[(dimethylamino)sulfonyl]amino]phenoxy]-4-fluoro-6-[(4-ethynyl-2-fluorophenyl)amino]-benzamide] | 13.5 nM | 
8 | CC(O)(CO)CCOc1cc(F)cc(Nc2ccc(I)cc2F)c1C(N)=O (single isomer, unassigned) [Example 6.6, 2-(3,4-Dihydroxy-3-methyl-butoxy)-4-fluoro-6-(2-fluoro-4-iodo-phenylamino)-benzamide] | 80.3 nM | 
9 | CC(C)(C)OC(=O)Nc1cccc(Oc2c(F)c(F)c(F)c(Nc3ccc(I)cc3F)c2C(N)=O)c1 [Example 2.19, {3-[2-Carbamoyl-4,5,6-trifluoro-3-(2-fluoro-4-iodo-phenylamino)-phenoxy]-phenyl}-carbamic acid tert-butyl ester] | 152 nM | < 1000 nM
10 | CS(=O)(=O)N1CCN(CCOc2cc(F)cc(Nc3ccc(I)cc3F)c2C(N)=O)CC1 [Example 5.31, 4-Fluoro-2-(2-fluoro-4-iodo-phenylamino)-6-[2-(4-methanesulfonyl-piperazin-1-yl)-ethoxy]-benzamide] | 153 nM | 
11 | NC(=O)c1c(Nc2ccc(I)cc2F)cc(F)cc1Oc1cccc(NS(=O)(=O)C2CCC2)c1 [Example 5.48, 2-(3-Cyclobutanesulfonyl-amino-phenoxy)-4-fluoro-6-(2-fluoro-4-iodo-phenylamino)-benzamide] | 16.9 nM | < 1000 nM
12 | CCS(=O)(=O)N1CCC[C@H]1COc1cc(F)cc(Nc2ccc(I)cc2F)c1C(N)=O [Example 5.34, 2-((S)-1-Ethanesulfonyl-pyrrolidin-2-ylmethoxy)-4-fluoro-6-(2-fluoro-4-iodo-phenylamino)-benzamide] | 96.5 nM | 
13 | CC(=O)N1CCC[C@@H]1COc1cc(F)cc(Nc2ccc(I)cc2F)c1C(N)=O [Example 5.39, 2-((R)-1-Acetyl-pyrrolidin-2-ylmethoxy)-4-fluoro-6-(2-fluoro-4-iodo-phenylamino)-benzamide] | 438 nM | 
14 | CS(=O)(=O)c1cccc(Oc2cc(F)cc(Nc3ccc(I)cc3F)c2C(N)=O)c1 [Example 10.8, 4-Fluoro-2-(2-fluoro-4-iodo-phenylamino)-6-(3-methanesulfonyl-phenoxy)-benzamide] | 29.4 nM | < 1000 nM
15 | CN1CCC[C@H]1COc1cc(F)cc(Nc2ccc(I)cc2F)c1C(N)=O [Example 4.25, 4-Fluoro-2-(2-fluoro-4-iodo-phenylamino)-6-((S)-1-methyl-pyrrolidin-2-ylmethoxy)-benzamide] | 182 nM | < 1000 nM
16 | C#Cc1ccc(Nc2c(F)c(F)c(F)c(Oc3cccc(NS(=O)(=O)N(C)C)c3)c2C(N)=O)c(F)c1 [Example 7.4, 2-{3-[(dimethylsulfamoyl)amino]phenoxy}-6-[(4-ethynyl-2-fluorophenyl)amino]-3,4,5-trifluorobenzamide] | 12.3 nM | 
17 | Cn1cc(Oc2cc(F)cc(Nc3ccc(I)cc3F)c2C(N)=O)cn1 [Example 4.27, 4-Fluoro-2-(2-fluoro-4-iodo-phenylamino)-6-(1-methyl-1H-pyrazol-4-yloxy)-benzamide] | 258 nM | < 1000 nM
18 | CC(O)(CO)CCOc1cc(F)cc(Nc2ccc(I)cc2F)c1C(N)=O (centres unmarked) [Example 6.2, 2-(3,4-Dihydroxy-3-methyl-butoxy)-4-fluoro-6-(2-fluoro-4-iodo-phenylamino)-benzamide] | 69.3 nM | 
19 | CS(=O)(=O)N1CCC[C@@H]1COc1cc(F)cc(Nc2ccc(I)cc2F)c1C(N)=O [Example 5.32, 4-Fluoro-2-(2-fluoro-4-iodo-phenylamino)-6-((R)-1-methanesulfonyl-pyrrolidin-2-ylmethoxy)-benzamide] | 35.4 nM | 
20 | C[C@@H](CO)NC(=O)c1c(Nc2ccc(I)cc2F)cc(F)cc1Oc1cccc(NS(=O)(=O)N(C)C)c1 [Example 4.21, 2-[3-[[(dimethylamino)sulfonyl]amino]phenoxy]--4-fluoro-6-[(2-fluoro-4-iodophenyl)amino]-N-((S)-2-hydroxy-1-methyl-ethyl)-benzamide] | 248 nM | 
21 | NC(=O)c1c(Nc2ccc(I)cc2F)cc(F)cc1Oc1cccc(CS(N)(=O)=O)c1 [Example 4.33, 4-Fluoro-2-(2-fluoro-4-iodo-phenylamino)-6-(3-sulfamoylmethyl-phenoxy)-benzamide] | 31.5 nM | < 1000 nM
22 | Cc1nocc1C(=O)Nc1cccc(Oc2cc(F)cc(Nc3ccc(I)cc3F)c2C(N)=O)c1 [Example 5.83, 3-Methyl-isoxazole-4-carboxylic acid {3-[2-carbamoyl-5-fluoro-3-(2-fluoro-4-iodo-phenylamino)-phenoxy]-phenyl}-amide] | 143 nM | 
23 | CCN(CC)S(=O)(=O)Nc1cccc(Oc2cc(F)cc(Nc3ccc(I)cc3F)c2C(N)=O)c1 [Example 5.38, 2-(3-diethylsulfamoyl-amino-phenoxy)-4-fluoro-6-(2-fluoro-4-iodo-phenylamino)-benzamide] | 55.3 nM | 
24 | CC(O)(CO)CCOc1cc(F)cc(Nc2ccc(I)cc2F)c1C(N)=O (single isomer, unassigned) [Example 6.5, 2-(3,4-Dihydroxy-3-methyl-butoxy)-4-fluoro-6-(2-fluoro-4-iodo-phenylamino)-benzamide] | 172 nM | 
25 | CC(C)(O)C(O)CCOc1cc(F)cc(Nc2ccc(I)cc2F)c1C(N)=O (centres unmarked) [Example 6.1, 2-(3,4-Dihydroxy-4-methyl-pentyloxy)-4-fluoro-6-(2-fluoro-4-iodo-phenylamino)-benzamide] | 19.7 nM | 
26 | Cn1cncc1C(=O)Nc1cccc(Oc2cc(F)cc(Nc3ccc(I)cc3F)c2C(N)=O)c1 [Example 5.82, 3-Methyl-3H-imidazole-4-carboxylic acid {3-[2-carbamoyl-5-fluoro-3-(2-fluoro-4-iodo-phenylamino)-phenoxy]-phenyl}-amide] | 49.9 nM | 
